# Results reported in PMC8009520, “Exploration of TRPM8 Binding Sites by β-Carboline-Based Antagonists and Their In Vitro Characterization and In Vivo Analgesic Activities” (Journal of Medicinal Chemistry, 2020).
# Read-outs that look alike come from different tables or passages of the source.
# What was measured:
# hTRPA1 = target: T1, hTRPA1 (Homo sapiens, UniProt O75762); assay: Selectivity fluorimetric assay, HEK-293 cells; assay type: cell-based; conditions: AITC as reference agonist
# T1 construct: expressed in transfected cells; host or cells: HEK-293, stably transfected
# [1] = target: T2, rat isoform of TRPM8 channels (Rattus norvegicus, UniProt Q8R455); assay: Ca2+ fluorimetric assay, menthol-activated channel; assay type: cell-based
# T2 construct: expressed in transfected cells
# Protocol: TRPM8 blocker activity of all synthesized compounds was tested by Ca^2+ fluorimetric assays using HEK-293 cells stably expressing the rat isoform of TRPM8 channels, using menthol and AMTB as prototypical agonist and antagonist, respectively.
# For measurement of the potency of the compounds, fluorimetric experiments were performed using HEK-293 cells (CRL-1573TM, American Type Culture Collection, LGC Promochem, Molsheim, France) that stably express rat TRPM8. The cells were seeded in 96-well plates (Corning Incorporated, Corning, NY) at a cell density of 40 000 cells 2 days before treatment. On the day of treatment, the medium was replaced with 100 μL of the dye loading solution Fluo-4 NW supplemented with probenecid 2.5 mM.
# The tested molecules dissolved in DMSO were added at the desired concentrations, and the plates were incubated in darkness at 37 °C in a humidified atmosphere of 5% CO2 for 60 min. The fluorescence was measured using instrument settings appropriate for excitation at 485 nm and emission at 535 nm (POLARstar Omega BMG LABtech). A baseline recording of four cycles was recorded prior to stimulation with the agonist (100 μM menthol for TRPM8). The TRPM8 antagonist, 10 μM AMTB, was added to the medium containing the corresponding agonist to induce channel blockade. The changes in fluorescence intensity were recorded during 15 cycles more. The higher concentration of DMSO used in the experiment was added to the control wells. The cells’ fluorescence was measured before and after the addition of various concentrations of test compounds. The fluorescence values obtained are normalized to that prompted by the corresponding agonist (for channel activating compounds) or upon agonist and antagonist coexposure (for channel blocker compounds).
# hNav1.7 = target: T3, hNav1.7 (Homo sapiens, UniProt Q15858); assay: Selectivity fluorimetric assay, HEK-293 cells; assay type: cell-based; conditions: for IC50: read-out: IC50, antagonistic activity over Nav1.7
# T3 construct: expressed in transfected cells; host or cells: HEK-293, stably transfected
# hTRPV1 = target: T4, hTRPV1 (Homo sapiens, UniProt Q8NER1); assay: Selectivity fluorimetric assay, CHO-K1 cells; assay type: cell-based; conditions: capsaicine as reference agonist
# T4 construct: expressed in transfected cells; host or cells: CHO-K1, stably transfected
# [2] = Time-course cis to trans epimerization stability (HPLC); assay type: physicochemical; conditions: during 60 min, regardless of the solvent used (PBS, methanol)
# Protocol: In this case, a different chemical approach is required because of the minor reactivity of anilines. Intermediates THBC 32a and 32b were coupled with 3CF3 or 2F or 4-F-phenyl isocyanate in basic medium of TEA. […] Absolute configuration was determined as described above. The formation of the cis intermediates, which was not observed with the N-benzyl or N-alkyl analogs, can be explained by the increased stability of the kinetic control species due to the higher rigidity of this structure. […] In addition, the corresponding C-11a epimers 36a′–38a′ could be obtained directly by reaction of 32b with the corresponding isocyanates and TEA at 60 °C for 30 min in 39–45% yields.
# Figure S1: Time-course trans (36a’-38a’) / cis (36b-38b) HPLC peak area ratio in physiological
# buffer (PBS, panel A) and methanol (Panel B).
# [3] = HEK-293 cells stably expressing rat TRPM8, menthol as agonist, mean ± SD of at least three measurements, read-out: IC50
# [4] = Table 2, Ca2+ fluorimetric assay, read-out: IC50 Ca2+
# [5] = supplementary xlsx, read-out: rTRPM8 IC50 (calcium microfluorimetric assays)
# T1 sequence (O75762 whole entry): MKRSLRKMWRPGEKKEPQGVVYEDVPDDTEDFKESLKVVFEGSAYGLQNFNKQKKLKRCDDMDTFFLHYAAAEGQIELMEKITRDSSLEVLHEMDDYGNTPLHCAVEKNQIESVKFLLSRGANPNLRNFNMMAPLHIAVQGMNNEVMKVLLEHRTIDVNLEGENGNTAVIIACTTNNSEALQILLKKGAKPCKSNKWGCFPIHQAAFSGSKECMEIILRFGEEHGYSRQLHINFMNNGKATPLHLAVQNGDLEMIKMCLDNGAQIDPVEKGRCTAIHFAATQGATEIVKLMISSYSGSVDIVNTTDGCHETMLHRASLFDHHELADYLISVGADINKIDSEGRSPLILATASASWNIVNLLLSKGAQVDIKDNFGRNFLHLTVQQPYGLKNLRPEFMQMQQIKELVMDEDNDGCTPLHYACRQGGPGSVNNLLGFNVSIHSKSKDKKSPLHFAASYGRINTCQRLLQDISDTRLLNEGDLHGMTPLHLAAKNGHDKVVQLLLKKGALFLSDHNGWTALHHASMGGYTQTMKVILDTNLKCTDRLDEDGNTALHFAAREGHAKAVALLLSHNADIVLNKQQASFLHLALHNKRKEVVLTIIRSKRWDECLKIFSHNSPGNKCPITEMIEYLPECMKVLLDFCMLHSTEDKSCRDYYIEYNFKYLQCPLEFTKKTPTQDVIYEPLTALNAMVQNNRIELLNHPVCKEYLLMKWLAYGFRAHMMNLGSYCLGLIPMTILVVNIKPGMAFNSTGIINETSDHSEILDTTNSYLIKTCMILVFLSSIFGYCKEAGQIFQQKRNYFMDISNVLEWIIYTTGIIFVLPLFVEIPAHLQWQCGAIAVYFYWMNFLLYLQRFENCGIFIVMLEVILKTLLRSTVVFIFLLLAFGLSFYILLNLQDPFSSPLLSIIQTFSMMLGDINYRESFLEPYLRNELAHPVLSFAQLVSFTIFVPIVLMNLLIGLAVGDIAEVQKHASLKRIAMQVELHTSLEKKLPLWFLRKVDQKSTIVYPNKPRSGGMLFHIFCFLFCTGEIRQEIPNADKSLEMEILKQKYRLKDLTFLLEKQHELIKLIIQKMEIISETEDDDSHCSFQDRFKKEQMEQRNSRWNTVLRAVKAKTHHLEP
# T3 sequence (Q15858 whole entry): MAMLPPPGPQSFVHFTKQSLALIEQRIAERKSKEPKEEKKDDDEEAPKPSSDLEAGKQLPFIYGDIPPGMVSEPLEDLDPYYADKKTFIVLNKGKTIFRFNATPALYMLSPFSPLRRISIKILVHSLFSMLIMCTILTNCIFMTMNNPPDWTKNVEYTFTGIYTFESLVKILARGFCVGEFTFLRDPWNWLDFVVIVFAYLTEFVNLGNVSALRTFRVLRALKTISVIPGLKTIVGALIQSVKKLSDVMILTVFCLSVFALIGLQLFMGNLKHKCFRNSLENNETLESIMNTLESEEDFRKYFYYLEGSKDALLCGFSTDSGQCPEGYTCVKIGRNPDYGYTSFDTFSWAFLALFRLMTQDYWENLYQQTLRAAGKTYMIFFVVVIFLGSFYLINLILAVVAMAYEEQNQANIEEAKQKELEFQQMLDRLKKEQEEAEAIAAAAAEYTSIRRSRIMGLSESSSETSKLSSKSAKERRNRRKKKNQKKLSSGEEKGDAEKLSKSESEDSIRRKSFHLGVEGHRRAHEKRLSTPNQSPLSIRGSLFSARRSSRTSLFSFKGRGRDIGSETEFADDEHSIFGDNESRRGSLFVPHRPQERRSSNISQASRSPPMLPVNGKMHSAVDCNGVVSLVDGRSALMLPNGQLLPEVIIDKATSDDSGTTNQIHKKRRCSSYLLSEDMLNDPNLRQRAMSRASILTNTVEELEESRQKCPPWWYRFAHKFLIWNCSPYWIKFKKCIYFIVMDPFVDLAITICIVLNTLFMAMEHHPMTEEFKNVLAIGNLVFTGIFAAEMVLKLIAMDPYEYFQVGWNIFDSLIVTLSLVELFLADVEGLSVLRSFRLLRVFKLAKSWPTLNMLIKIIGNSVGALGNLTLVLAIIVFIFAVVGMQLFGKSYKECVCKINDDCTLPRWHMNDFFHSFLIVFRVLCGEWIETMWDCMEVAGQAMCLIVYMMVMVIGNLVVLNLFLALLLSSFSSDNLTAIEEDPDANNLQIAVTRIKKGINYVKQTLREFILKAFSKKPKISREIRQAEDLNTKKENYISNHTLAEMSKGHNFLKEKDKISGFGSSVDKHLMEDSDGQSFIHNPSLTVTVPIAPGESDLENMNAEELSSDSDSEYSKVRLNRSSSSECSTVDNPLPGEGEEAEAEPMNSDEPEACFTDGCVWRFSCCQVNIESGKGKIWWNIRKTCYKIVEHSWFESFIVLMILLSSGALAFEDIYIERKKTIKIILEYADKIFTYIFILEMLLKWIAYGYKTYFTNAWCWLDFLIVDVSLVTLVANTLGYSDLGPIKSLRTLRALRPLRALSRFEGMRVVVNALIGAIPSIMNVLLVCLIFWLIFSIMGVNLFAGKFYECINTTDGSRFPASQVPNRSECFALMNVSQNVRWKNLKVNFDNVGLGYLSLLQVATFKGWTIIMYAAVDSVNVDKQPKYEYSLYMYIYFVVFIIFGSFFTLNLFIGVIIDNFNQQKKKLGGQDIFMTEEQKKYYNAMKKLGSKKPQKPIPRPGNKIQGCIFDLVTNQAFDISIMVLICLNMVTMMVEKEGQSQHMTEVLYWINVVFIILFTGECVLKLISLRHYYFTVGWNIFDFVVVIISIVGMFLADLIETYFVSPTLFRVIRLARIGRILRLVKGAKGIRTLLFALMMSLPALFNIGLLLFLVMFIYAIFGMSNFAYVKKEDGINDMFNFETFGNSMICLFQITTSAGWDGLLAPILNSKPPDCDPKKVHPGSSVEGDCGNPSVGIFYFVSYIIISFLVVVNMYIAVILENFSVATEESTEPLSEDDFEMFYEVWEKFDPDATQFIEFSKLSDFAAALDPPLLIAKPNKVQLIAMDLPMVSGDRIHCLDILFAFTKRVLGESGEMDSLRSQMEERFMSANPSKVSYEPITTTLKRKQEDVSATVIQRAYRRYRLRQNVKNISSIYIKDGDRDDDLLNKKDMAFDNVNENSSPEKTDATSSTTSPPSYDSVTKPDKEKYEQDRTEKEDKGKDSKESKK
# T4 sequence (Q8NER1 whole entry): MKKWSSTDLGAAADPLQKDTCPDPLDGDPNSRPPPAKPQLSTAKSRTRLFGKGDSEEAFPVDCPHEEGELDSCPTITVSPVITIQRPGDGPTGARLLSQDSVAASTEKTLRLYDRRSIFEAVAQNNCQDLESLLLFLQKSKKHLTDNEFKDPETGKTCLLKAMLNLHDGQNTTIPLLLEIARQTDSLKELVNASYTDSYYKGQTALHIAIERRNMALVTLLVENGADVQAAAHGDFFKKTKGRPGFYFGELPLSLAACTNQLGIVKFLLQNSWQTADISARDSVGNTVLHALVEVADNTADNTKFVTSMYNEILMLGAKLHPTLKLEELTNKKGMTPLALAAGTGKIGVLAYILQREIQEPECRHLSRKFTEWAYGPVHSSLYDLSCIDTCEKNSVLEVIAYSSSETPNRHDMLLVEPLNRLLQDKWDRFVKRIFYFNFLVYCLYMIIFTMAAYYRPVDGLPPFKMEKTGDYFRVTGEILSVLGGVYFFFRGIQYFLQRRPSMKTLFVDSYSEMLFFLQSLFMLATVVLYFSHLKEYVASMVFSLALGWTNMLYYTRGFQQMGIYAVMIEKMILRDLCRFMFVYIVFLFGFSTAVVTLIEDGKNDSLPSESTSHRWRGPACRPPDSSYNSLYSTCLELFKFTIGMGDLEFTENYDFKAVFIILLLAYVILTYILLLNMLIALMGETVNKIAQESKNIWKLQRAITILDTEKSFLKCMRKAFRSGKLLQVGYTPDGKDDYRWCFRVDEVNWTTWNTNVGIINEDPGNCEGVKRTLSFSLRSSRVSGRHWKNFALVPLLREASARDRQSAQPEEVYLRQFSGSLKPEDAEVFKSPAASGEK
# T2 sequence (Q8R455 whole entry, canonical isoform): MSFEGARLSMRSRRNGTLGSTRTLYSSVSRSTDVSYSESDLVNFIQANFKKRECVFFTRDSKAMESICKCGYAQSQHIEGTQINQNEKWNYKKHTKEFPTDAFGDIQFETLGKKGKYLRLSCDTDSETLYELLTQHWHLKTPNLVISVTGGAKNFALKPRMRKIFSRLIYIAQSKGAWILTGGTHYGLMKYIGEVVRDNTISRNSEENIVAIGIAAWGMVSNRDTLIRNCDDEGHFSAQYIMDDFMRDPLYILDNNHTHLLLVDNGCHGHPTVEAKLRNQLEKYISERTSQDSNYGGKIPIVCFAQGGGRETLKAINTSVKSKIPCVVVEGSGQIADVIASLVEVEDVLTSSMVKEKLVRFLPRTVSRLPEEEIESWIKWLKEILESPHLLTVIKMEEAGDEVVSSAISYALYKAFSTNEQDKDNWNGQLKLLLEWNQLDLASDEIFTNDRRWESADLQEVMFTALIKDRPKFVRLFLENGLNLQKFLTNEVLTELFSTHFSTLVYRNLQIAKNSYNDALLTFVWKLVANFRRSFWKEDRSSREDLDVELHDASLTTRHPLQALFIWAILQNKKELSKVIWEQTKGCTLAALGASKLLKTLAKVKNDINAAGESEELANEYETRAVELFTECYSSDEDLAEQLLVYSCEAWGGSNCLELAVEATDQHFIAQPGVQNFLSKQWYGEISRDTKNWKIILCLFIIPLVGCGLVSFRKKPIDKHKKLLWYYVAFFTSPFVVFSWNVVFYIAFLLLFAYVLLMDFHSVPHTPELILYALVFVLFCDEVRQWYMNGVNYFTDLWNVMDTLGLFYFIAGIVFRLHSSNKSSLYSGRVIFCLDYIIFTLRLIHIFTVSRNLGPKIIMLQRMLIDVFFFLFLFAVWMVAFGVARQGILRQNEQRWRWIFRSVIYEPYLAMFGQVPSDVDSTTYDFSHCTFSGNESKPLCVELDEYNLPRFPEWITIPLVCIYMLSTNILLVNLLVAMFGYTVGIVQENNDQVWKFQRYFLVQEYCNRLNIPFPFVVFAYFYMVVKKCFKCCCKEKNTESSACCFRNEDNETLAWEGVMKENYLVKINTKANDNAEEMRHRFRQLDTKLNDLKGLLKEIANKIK
smiles,measurement,setting,value
"COC(=O)[C@@H]1Cc2c([nH]c3ccccc23)[C@@H](c2ccccc2)N1Cc1ccccc1 [6a, (1R,3S)-Methyl 2-Benzyl-1-phenyl-2,3,4,9-tetrahydro-1H-pyrido[3,4-b]indole-3-carboxylate]",activity as agonist or antagonist on TRPA1,hTRPA1,no activity as agonists or antagonists
same,IC50,[1]; [3],1.3 ± 0.7 µM
same,IC50,hNav1.7,> 10 µM
same,activity as agonist or antagonist on TRPV1,hTRPV1,no activity as agonists or antagonists
"O=C1[C@H]2Cc3c([nH]c4ccccc34)[C@H](c3ccc(Cl)cc3)N2C(=O)N1Cc1ccc(F)cc1 [31a′, (5S,11aR)-5-(4-Chlorophenyl)-2-(4-fluorobenzyl)-5,6,11,11a-tetrahydro-1H-imidazo[1′,5′:1,6]pyrido[3,4-b]indole-1,3(2H)-dione]",IC50,[1]; [3],> 30 µM
"O=C1[C@@H]2Cc3c([nH]c4ccccc34)[C@@H](c3ccc(F)cc3)N2C(=O)N1Cc1ccccc1 [33a, (5R,11aS)-2-Benzyl-5-(4-fluorophenyl)-5,6,11,11a-tetrahydro-1H-imidazo[1′,5′:1,6]pyrido[3,4-b]indole-1,3(2H)-dione]",IC50,[1]; [3],6.4 ± 1.2 µM
same,rTRPM8 IC50 (calcium microfluorimetric assays),[1]; supplementary xlsx,17.5 ± 1.4 µM
"O=C1[C@H]2Cc3c([nH]c4ccccc34)[C@H](c3ccc(F)cc3)N2C(=O)N1Cc1ccccc1 [33a′, (5S,11aR)-2-Benzyl-5-(4-fluorophenyl)-5,6,11,11a-tetrahydro-1H-imidazo[1′,5′:1,6]pyrido[3,4-b]indole-1,3(2H)-dione]",IC50,[1]; [3],17.5 ± 1.4 µM
"NCCCN1C(=O)[C@@H]2Cc3c([nH]c4ccccc34)[C@@H](c3ccc(F)cc3)N2C1=O [35a, (5R,11aS)-2-(3-Aminopropyl)-5-(4-fluorophenyl)-5,6,11,11a-tetrahydro-1H-imidazo[1′,5′:1,6]pyrido[3,4-b]indole-1,3(2H)-dione]",IC50,[1]; [3],5.1 ± 1.2 µM
same,rTRPM8 IC50 (calcium microfluorimetric assays),[1]; supplementary xlsx,27.2 ± 1.4 µM
"NCCCN1C(=O)[C@H]2Cc3c([nH]c4ccccc34)[C@H](c3ccc(F)cc3)N2C1=O [35a′, (5S,11aR)-2-(3-Aminopropyl)-5-(4-fluorophenyl)-5,6,11,11a-tetrahydro-1H-imidazo[1′,5′:1,6]pyrido[3,4-b]indole-1,3(2H)-dione]",IC50,[1]; [3],27.2 ± 1.4 µM
"O=C1[C@@H]2Cc3c([nH]c4ccccc34)[C@@H](c3ccc(F)cc3)N2C(=O)N1c1cccc(C(F)(F)F)c1 [36a, (5R,11aS)-5-(4-Fluorophenyl)-2-(3-(trifluoromethyl)phenyl)-5,6,11,11a-tetrahydro-1H-imidazo[1′,5′:1,6]pyrido[3,4-b]indole-1,3(2H)-dione]",IC50,[1]; [3],2.8 ± 1.5 µM
same,rTRPM8 IC50 (calcium microfluorimetric assays),[1]; supplementary xlsx,7.8 ± 2.4 µM
"O=C1[C@H]2Cc3c([nH]c4ccccc34)[C@H](c3ccc(F)cc3)N2C(=O)N1c1cccc(C(F)(F)F)c1 [36a′, (5S,11aR)-5-(4-Fluorophenyl)-2-(3-(trifluoromethyl)phenyl)-5,6,11,11a-tetrahydro-1H-imidazo[1′,5′:1,6]pyrido[3,4-b]indole-1,3(2H)-dione]",IC50,[1]; [3],7.8 ± 2.4 µM
"O=C1[C@@H]2Cc3c([nH]c4ccccc34)[C@@H](c3ccc(F)cc3)N2C(=O)N1c1ccccc1F [37a, (5R,11aS)-2-(2-Fluorophenyl)-5-(4-fluorophenyl)-5,6,11,11a-tetrahydro-1H-imidazo[1′,5′:1,6]pyrido[3,4-b]indole-1,3(2H)-dione]",IC50,[1]; [3],4.4 ± 1.3 µM
same,rTRPM8 IC50 (calcium microfluorimetric assays),[1]; supplementary xlsx,5.1 ± 2.1 µM
"O=C1[C@H]2Cc3c([nH]c4ccccc34)[C@H](c3ccc(F)cc3)N2C(=O)N1c1ccccc1F [37a′, (5S,11aR)-2-(2-Fluorophenyl)-5-(4-fluorophenyl)-5,6,11,11a-tetrahydro-1H-imidazo[1′,5′:1,6]pyrido[3,4-b]indole-1,3(2H)-dione]",IC50,[1]; [3],5.1 ± 2.1 µM
"O=C1[C@@H]2Cc3c([nH]c4ccccc34)[C@H](c3ccc(F)cc3)N2C(=O)N1c1ccccc1F [37b, (5S,11aS)-2-(2-Fluorophenyl)-5-(4-fluorophenyl)-5,6,11,11a-tetrahydro-1H-imidazo[1′,5′:1,6]pyrido[3,4-b]indole-1,3(2H)-dione]",conversion of cis isomer to trans isomer,[2],almost fully converted to the trans isomers
"O=C1[C@@H]2Cc3c([nH]c4ccccc34)[C@@H](c3ccc(F)cc3)N2C(=O)N1c1ccc(F)cc1 [38a, (5R,11aS)-2,5-Bis(4-fluorophenyl)-5,6,11,11a-tetrahydro-1H-imidazo[1′,5′:1,6]pyrido[3,4-b]indole-1,3(2H)-dione]",IC50,[1]; [3],6.7 ± 1.2 µM
same,rTRPM8 IC50 (calcium microfluorimetric assays),[1]; supplementary xlsx,7.2 ± 0.9 µM
"O=C1[C@H]2Cc3c([nH]c4ccccc34)[C@H](c3ccc(F)cc3)N2C(=O)N1c1ccc(F)cc1 [38a′, (5S,11aR)-2,5-Bis(4-fluorophenyl)-5,6,11,11a-tetrahydro-1H-imidazo[1′,5′:1,6]pyrido[3,4-b]indole-1,3(2H)-dione]",IC50,[1]; [3],7.2 ± 0.9 µM
"O=C1[C@@H]2Cc3c([nH]c4ccccc34)[C@H](c3ccc(F)cc3)N2C(=O)N1c1ccc(F)cc1 [38b, (5S,11aS)-2,5-Bis(4-fluorophenyl)-5,6,11,11a-tetrahydro-1H-imidazo[1′,5′:1,6]pyrido[3,4-b]indole-1,3(2H)-dione]",conversion of cis isomer to trans isomer,[2],almost fully converted to the trans isomers
"Cc1cccc(COc2ccccc2C(=O)N(CCCN)Cc2cccs2)c1 [AMTB, reference compound]",IC50,[1]; [3],7.3 ± 1.5 µM
"O=C(NCc1ccc(F)cc1)[C@@H]1Cc2c([nH]c3ccccc23)CN1 [compound 9, (S)-N-(4-Fluorobenzyl)-2,3,4,9-tetrahydro-1H-pyrido[3,4-b]indole-3-carboxamide]",activity as agonist or antagonist on TRPA1,hTRPA1,no activity as agonists or antagonists
same,IC50,[1]; [3],0.9 ± 0.4 µM
same,IC50,[1]; [4],0.9 ± 0.4 µM
same,IC50,[1]; [5],0.6 ± 1.3 µM
same,IC50,hNav1.7,> 10 µM
same,activity as agonist or antagonist on TRPV1,hTRPV1,no activity as agonists or antagonists
"COC(=O)[C@@H]1Cc2c([nH]c3ccccc23)CN1C(=O)CCN [compound 17, (S)-Methyl 2-(3-Aminopropanoyl)-2,3,4,9-tetrahydro-1H-pyrido[3,4-b]indole-3-carboxylate]",IC50,[1]; [3],> 100 µM
"O=C1NCC(=O)N2Cc3[nH]c4ccccc4c3C[C@@H]12 [compound 21, (S)-2,3,6,7,12,12a-Hexahydropyrazino[1′,2′:1,6]pyrido[3,4-b]indole-1,4-dione]",IC50,[1]; [3],11.4 ± 1.6 µM
"O=C1N[C@@H](Cc2ccccc2)C(=O)N2Cc3[nH]c4ccccc4c3C[C@@H]12 [compound 22, (3S,12aS)-3-Benzyl-2,3,12,12a-tetrahydropyrazino[1′,2′:1,6]pyrido[3,4-b]indole-1,4(6H,7H)-dione]",IC50,[1]; [3],1.6 ± 0.7 µM
same,IC50,[1]; [5],1.2 ± 1.3 µM
"O=C1N[C@H](Cc2ccccc2)C(=O)N2Cc3[nH]c4ccccc4c3C[C@@H]12 [compound 23, (3R,12aS)-3-Benzyl-2,3,12,12a-tetrahydropyrazino[1′,2′:1,6]pyrido[3,4-b]indole-1,4(6H,7H)-dione]",activity as agonist or antagonist on TRPA1,hTRPA1,no activity as agonists or antagonists
same,IC50,[1]; [3],0.4 ± 0.1 µM
same,IC50,[1]; [4],0.4 ± 0.1 µM
same,IC50,[1]; [5],0.3 µM
same,activity as agonist or antagonist on Nav1.7,hNav1.7; veratridine as reference agonist,no activity as agonists or antagonists
same,activity as agonist or antagonist on TRPV1,hTRPV1,no activity as agonists or antagonists
"O=C1[C@@H]2Cc3c([nH]c4ccccc34)CN2C(=O)N1Cc1ccc(F)cc1 [compound 28, (S)-2-(4-Fluorobenzyl)-5,6,11,11a-tetrahydro-1H-imidazo[1′,5′:1,6]pyrido[3,4-b]indole-1,3(2H)-dione]",IC50,[1]; [3],17.8 ± 1.2 µM
